{"source": "ChEMBL document CHEMBL3351866", "about": "“Indole alkaloid glycosides from the aerial parts of Strobilanthes cusia” (2014)", "note": "Active and inactive are the calls of the source. The calls are words filed in the database; no cut-off is given here.", "data": [{"system": "Staphylococcus aureus", "assay": "Antibacterial activity against Staphylococcus aureus assessed as growth inhibition after 24 hrs by broth microdilution assay", "assay_type": "functional", "units": {"MIC": "µM"}, "values": [{"smiles": "C[C@@H]1O[C@@H](O[C@@H]2[C@@H](O)[C@H](OCCc3ccc(O)c(O)c3)O[C@H](CO)[C@@H]2OC(=O)/C=C/c2ccc(O)c(O)c2)[C@H](O)[C@H](O)[C@H]1O", "Activity": "inactive"}, {"smiles": "COc1ccc(CCO[C@@H]2O[C@H](COC(=O)/C=C/c3ccc(O)c(OC)c3)[C@@H](O)[C@H](O[C@@H]3O[C@@H](C)[C@H](O)[C@@H](O)[C@H]3O)[C@H]2O)cc1O", "Activity": "inactive"}, {"smiles": "COC(=O)/C=C/c1[nH]c2ccccc2c1O[C@@H]1O[C@H](CO)[C@@H](O)[C@H](O)[C@H]1O", "Activity": "inactive"}, {"smiles": "C[C@@H]1O[C@@H](O[C@@H]2[C@@H](O)[C@H](OCCc3ccc(O)c4c3[C@@]3(Nc5ccccc5C3=O)[C@]3(Nc5ccccc5C3=O)O4)O[C@H](CO)[C@H]2OC(=O)/C=C/c2ccc(O)c(O)c2)[C@H](O)[C@H](O)[C@H]1O", "Activity": "inactive"}, {"smiles": "C[C@@H]1O[C@@H](O[C@@H]2[C@@H](O)[C@H](OCCc3ccc(O)c(O)c3)O[C@H](CO)[C@H]2OC(=O)/C=C/c2ccc(O)c(O)c2)[C@H](O)[C@H](O)[C@H]1O", "Activity": "inactive"}, {"smiles": "COc1ccc(CCO[C@@H]2O[C@H](CO)[C@@H](OC(=O)/C=C/c3ccc(O)c(OC)c3)[C@H](O[C@@H]3O[C@@H](C)[C@H](O)[C@@H](O)[C@H]3O)[C@H]2O)cc1O", "Activity": "inactive"}, {"smiles": "O=C1/C(=C2/C(=O)N([C@@H]3O[C@H](CO)[C@@H](O)[C@H](O)[C@H]3O)c3ccccc32)Nc2ccccc21", "MIC": 62.5}, {"smiles": "COc1ccc(CCO[C@@H]2O[C@H](CO)[C@@H](OC(=O)/C=C/c3ccc(O)c(O)c3)[C@H](O[C@@H]3O[C@@H](C)[C@H](O)[C@@H](O)[C@H]3O)[C@H]2O)cc1O", "Activity": "inactive"}, {"smiles": "C[C@@H]1O[C@@H](O[C@@H]2[C@@H](O)[C@H](OCCc3ccc(O)c4c3[C@]3(Nc5ccccc5C3=O)[C@@]3(Nc5ccccc5C3=O)O4)O[C@H](CO)[C@H]2OC(=O)/C=C/c2ccc(O)c(O)c2)[C@H](O)[C@H](O)[C@H]1O", "Activity": "inactive"}, {"smiles": "COC(=O)c1ccccc1NC(=O)c1[nH]c2ccccc2c1O[C@@H]1O[C@H](CO)[C@@H](O)[C@H](O)[C@H]1O", "Activity": "inactive"}]}]}
